Laboratory results from ChEMBL document CHEMBL1201862, “PubChem BioAssay data set” (2004).
Active and inactive are the calls of the source.

What was measured:
[1] = target: T1, Carboxy-terminal domain RNA polymerase II polypeptide A small phosphatase 1 (Homo sapiens, UniProt Q9GZU7); assay: inhibitors of CTDSP1, concentration-response testing, biochemical assay, absorbance-based, actives from ultra-high-throughput screening (AID 540297); type: functional
T1 sequence (Q9GZU7 whole entry): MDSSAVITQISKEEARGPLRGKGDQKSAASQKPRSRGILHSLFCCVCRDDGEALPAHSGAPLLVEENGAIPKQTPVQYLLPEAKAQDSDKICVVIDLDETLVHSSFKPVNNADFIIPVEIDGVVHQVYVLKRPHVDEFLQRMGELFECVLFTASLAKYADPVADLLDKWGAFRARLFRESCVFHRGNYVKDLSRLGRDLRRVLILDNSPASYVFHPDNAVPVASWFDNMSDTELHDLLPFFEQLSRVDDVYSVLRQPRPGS

[2] = target: T2, Low molecular weight phosphotyrosine protein phosphatase (Homo sapiens, UniProt P24666); type: functional; details: read-out: IC50_Mean;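 further: Dose-response confirmation assay measuring inhibition of LMPTP enzyme activity by fluorescence intensity read-out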
T2 sequence (P24666 whole entry): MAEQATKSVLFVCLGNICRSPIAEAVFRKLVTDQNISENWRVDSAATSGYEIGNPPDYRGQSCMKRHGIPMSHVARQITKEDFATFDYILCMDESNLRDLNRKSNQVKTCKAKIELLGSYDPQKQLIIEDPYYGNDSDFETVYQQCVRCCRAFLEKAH

[3] = target: Peroxisome proliferator-activated receptor gamma/Nuclear receptor coactivator 1 (Homo sapiens, UniProt P37231); assay: (§1) TR-FRET dose response biochemical High Throughput Screening assay for agonists of the steroid receptor coactivator 1 (SRC-1) recruitment by the peroxisome proliferator-activated receptor gamma (PPAR gamma): non-selective agonists. [Related pubchem assays (depositor defined):AID1300, AID1808, AID504735, AID631]; type: protein assay
[4] = target: Peroxisome proliferator-activated receptor gamma/Nuclear receptor coactivator 3 (Homo sapiens, UniProt P37231); assay: as §1, with “3 (SRC-3)” for “1 (SRC-1)”, “assays: 1301 (Confirmation screen.), 1048 (Primary screen.)]” for “assays (depositor defined):AID1300, AID1808, AID504735, AID631]”; type: functional
[5] = target: Peroxisome proliferator-activated receptor gamma/Nuclear receptor coactivator 2 (Homo sapiens, UniProt P37231); assay: TR-FRET dose response biochemical High Throughput Screening assay for agonists of the steroid receptor coactivator 2 (SRC-2) recruitment by the peroxisome proliferator-activated receptor gamma (PPAR gamma): non-selective agonists. [Related pubchem assays: 1297, 1032 ]; type: functional
[6] = target: T3, Coagulation factor XII (Homo sapiens, UniProt P00748); type: functional;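 further: activated factor XIIa alpha cleaving a fluorogenic AMC peptide substrate; inhibitor potency from loss of enzyme activity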
T3 sequence (P00748 whole entry): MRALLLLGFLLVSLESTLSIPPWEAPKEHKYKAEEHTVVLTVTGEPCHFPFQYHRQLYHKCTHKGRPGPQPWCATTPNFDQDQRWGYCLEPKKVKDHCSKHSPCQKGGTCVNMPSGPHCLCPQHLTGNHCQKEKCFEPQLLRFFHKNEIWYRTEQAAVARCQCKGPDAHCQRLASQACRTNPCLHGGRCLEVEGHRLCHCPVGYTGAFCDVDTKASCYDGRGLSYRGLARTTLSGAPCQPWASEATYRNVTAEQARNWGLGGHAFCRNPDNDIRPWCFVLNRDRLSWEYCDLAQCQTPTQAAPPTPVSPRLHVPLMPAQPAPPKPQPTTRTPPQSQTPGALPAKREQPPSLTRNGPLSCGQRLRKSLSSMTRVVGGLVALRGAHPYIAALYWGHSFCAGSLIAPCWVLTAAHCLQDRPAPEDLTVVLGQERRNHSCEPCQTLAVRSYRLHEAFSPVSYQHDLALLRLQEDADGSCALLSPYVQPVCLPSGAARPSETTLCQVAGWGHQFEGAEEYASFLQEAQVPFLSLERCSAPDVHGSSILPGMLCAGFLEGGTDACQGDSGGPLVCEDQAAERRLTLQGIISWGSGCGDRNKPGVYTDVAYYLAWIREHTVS

[7] = target: T4, Adenosylmethionine-8-amino-7-oxononanoate aminotransferase (Mycobacterium tuberculosis, UniProt P9WQ81); assay: Mycobacterium tuberculosis BioA enzyme inhibitor Measured in Biochemical System Using Plate Reader - 2163-02_Inhibitor_Dose_CherryPick_Activity.; type: functional, Mycobacterium tuberculosis UT205
T4 sequence (P9WQ81 whole entry): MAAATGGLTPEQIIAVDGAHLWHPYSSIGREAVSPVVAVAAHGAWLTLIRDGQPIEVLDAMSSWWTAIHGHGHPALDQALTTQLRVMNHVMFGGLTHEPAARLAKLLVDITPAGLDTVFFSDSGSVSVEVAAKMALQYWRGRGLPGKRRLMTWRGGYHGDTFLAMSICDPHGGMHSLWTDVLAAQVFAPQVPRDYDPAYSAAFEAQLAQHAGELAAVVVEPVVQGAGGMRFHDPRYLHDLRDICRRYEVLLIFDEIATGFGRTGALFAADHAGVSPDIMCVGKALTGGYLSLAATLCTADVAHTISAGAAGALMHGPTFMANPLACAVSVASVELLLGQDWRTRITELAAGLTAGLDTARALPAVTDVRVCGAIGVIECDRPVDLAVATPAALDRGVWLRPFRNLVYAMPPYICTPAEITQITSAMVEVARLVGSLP

[8] = target: Large T antigen (Simian virus 40, UniProt P03070); type: functional, Betapolyomavirus macacae;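 further: Confirmatory-stage PubChem screen for compounds that inhibit SV40 T antigen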
[9] = target: Dual specificity tyrosine-phosphorylation-regulated kinase 1A (Rattus norvegicus, UniProt Q63470); type: biochemical, Homo sapiens
[10] = target: 26S proteasome non-ATPase regulatory subunit 14 (Homo sapiens, UniProt O00487); assay: inhibition of proteasome subunit RPN11 – biochemical, fluorescence polarization, uHTS hits, confirmation (AID 602368); type: functional
[11] = target: 72 kDa type IV collagenase (Homo sapiens, UniProt P08253); assay: Dose Response validation of uHTS RPN11 inhibitor hits using a MMP-2 Fluorescence assay.; type: functional
[12] = target: Prothrombin (Bos taurus, UniProt P00735); assay: thrombin inhibition, dose response, biochemical, fluorescence polarization, uHTS hits (AID 602369); type: functional
[13] = test system: BJ; assay: cytotoxicity toward BJ-TERT fibroblasts, dose response, cell-based, RAS-independent, luminescence (AID 1933); type: functional; details: Homo sapiens
[14] = target: T5, Luciferin 4-monooxygenase (Photinus pyralis, UniProt P08659); assay: Counter Screen for Luciferase-based Assay Positives. [Related pubchem assays: 620, 618, 411 ]
[15] = test system: BJ; assay: cells; type: functional, cell-based; details: Homo sapiens
[16] = target: T5, Luciferin 4-monooxygenase; assay: firefly luciferase enzyme inhibitors, dose response, biochemical, luminescence (AID 1891)
[17] = Luminescence Cell-Based Dose Confirmation HTS to Identify Inhibitors of Platelet Dense Granule Release. [Related pubchem assays: 1663 (Primary HTS), 1678 (Summary of Project)]; type: functional
[18] = test system: HT-1080; assay: cytotoxicity in HT1080 fibrosarcoma cells, cell-based, fluorescence readout (AID 620); type: functional; details: Homo sapiens
[19] = test system: BJ; assay: cytotoxicity toward BJ-TERT-LT-ST fibroblasts, dose response, cell-based, RAS-independent, luminescence (AID 1935); type: functional; details: Homo sapiens;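 further: BJ fibroblasts immortalized with TERT plus LT and ST oncogenes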
[20] = cytotoxicity toward DRD oncogenic fibroblasts, dose response, cell-based, non-viral oncogenic, luminescence (AID 1934); type: functional; details: Homo sapiens
[21] = target: Heat shock protein HSP 90-alpha (Homo sapiens, UniProt P07900); type: functional, organism-based
[22] = test system: BJ; assay: cytotoxicity toward Ras-transformed BJeLR fibroblasts, dose response, cell-based, alamar blue fluorescence, cherrypicked samples (AID 2631); type: functional; details: Homo sapiens;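 further: confirmatory dose-response assay in RAS-dependent BJ fibroblasts engineered with TERT, LT and ST, with cytotoxicity read by fluorescence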

T5 sequence (P08659 whole entry): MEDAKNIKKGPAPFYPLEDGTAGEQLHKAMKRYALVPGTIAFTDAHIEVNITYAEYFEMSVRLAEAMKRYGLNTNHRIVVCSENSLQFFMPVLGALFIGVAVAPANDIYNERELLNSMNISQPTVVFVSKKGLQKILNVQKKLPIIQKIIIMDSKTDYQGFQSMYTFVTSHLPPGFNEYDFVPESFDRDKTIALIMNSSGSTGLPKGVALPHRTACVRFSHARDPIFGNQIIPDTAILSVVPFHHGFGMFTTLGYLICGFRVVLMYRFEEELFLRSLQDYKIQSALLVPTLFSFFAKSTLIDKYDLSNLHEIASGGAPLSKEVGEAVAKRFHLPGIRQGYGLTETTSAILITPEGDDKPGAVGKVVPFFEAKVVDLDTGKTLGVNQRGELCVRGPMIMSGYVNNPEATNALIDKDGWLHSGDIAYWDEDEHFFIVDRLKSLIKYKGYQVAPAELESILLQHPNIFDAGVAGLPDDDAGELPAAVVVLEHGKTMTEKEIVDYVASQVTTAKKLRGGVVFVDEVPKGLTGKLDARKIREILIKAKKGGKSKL
Sequence of Peroxisome proliferator-activated receptor gamma/Nuclear receptor coactivator 1 (P37231 whole entry): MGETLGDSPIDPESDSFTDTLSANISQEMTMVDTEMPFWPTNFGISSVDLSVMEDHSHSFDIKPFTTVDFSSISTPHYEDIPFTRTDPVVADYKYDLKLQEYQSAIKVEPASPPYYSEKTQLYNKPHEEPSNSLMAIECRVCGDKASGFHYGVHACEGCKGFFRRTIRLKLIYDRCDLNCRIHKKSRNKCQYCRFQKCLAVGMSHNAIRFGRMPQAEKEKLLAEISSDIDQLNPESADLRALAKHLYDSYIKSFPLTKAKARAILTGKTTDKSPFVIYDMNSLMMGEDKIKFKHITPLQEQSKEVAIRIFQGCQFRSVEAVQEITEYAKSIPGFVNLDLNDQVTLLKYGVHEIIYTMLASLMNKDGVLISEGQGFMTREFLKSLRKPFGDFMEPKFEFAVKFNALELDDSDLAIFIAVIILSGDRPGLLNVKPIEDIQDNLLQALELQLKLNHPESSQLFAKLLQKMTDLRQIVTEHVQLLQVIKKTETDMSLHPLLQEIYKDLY
Sequence of Peroxisome proliferator-activated receptor gamma/Nuclear receptor coactivator 1 (Q15788 whole entry, further chain): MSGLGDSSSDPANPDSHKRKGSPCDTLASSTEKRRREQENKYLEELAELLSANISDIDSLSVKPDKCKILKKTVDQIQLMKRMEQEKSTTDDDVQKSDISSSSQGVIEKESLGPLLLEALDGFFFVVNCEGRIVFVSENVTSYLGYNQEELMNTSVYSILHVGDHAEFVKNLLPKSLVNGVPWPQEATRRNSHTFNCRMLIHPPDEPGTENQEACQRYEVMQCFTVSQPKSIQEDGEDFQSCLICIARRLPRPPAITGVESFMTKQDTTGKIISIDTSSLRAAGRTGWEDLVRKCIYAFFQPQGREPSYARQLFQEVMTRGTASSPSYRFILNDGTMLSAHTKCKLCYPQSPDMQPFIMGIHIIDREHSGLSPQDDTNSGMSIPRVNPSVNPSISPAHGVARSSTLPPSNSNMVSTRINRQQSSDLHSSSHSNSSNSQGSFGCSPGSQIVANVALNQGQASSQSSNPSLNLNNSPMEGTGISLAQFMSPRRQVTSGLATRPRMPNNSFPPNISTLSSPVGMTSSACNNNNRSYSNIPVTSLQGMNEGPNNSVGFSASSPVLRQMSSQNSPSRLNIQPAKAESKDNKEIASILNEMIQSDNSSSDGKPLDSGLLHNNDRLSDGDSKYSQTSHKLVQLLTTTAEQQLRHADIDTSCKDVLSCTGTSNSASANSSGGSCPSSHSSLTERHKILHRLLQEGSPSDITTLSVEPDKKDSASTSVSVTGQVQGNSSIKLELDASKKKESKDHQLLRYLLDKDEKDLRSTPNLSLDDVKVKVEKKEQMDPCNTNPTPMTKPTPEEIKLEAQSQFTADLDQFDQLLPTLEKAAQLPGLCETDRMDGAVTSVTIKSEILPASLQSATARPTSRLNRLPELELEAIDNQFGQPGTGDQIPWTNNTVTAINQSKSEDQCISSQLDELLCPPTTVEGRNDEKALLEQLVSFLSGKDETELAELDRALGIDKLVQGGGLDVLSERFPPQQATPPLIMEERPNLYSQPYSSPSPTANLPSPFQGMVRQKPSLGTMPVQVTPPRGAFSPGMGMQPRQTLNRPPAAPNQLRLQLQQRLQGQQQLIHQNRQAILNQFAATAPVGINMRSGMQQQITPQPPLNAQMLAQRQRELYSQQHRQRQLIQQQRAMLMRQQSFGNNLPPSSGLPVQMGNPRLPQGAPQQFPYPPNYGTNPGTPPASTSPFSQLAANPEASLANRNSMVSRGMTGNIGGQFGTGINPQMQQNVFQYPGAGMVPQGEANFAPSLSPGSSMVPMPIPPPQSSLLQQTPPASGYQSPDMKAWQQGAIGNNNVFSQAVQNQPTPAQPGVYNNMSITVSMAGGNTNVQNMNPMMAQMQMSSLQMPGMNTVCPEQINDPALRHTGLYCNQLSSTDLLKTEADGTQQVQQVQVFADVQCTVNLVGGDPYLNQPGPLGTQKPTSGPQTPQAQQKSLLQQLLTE
Sequence of Peroxisome proliferator-activated receptor gamma/Nuclear receptor coactivator 2 (P37231 whole entry): as the sequence (P37231 whole entry) above
Sequence of Peroxisome proliferator-activated receptor gamma/Nuclear receptor coactivator 2 (Q15596 whole entry, further chain): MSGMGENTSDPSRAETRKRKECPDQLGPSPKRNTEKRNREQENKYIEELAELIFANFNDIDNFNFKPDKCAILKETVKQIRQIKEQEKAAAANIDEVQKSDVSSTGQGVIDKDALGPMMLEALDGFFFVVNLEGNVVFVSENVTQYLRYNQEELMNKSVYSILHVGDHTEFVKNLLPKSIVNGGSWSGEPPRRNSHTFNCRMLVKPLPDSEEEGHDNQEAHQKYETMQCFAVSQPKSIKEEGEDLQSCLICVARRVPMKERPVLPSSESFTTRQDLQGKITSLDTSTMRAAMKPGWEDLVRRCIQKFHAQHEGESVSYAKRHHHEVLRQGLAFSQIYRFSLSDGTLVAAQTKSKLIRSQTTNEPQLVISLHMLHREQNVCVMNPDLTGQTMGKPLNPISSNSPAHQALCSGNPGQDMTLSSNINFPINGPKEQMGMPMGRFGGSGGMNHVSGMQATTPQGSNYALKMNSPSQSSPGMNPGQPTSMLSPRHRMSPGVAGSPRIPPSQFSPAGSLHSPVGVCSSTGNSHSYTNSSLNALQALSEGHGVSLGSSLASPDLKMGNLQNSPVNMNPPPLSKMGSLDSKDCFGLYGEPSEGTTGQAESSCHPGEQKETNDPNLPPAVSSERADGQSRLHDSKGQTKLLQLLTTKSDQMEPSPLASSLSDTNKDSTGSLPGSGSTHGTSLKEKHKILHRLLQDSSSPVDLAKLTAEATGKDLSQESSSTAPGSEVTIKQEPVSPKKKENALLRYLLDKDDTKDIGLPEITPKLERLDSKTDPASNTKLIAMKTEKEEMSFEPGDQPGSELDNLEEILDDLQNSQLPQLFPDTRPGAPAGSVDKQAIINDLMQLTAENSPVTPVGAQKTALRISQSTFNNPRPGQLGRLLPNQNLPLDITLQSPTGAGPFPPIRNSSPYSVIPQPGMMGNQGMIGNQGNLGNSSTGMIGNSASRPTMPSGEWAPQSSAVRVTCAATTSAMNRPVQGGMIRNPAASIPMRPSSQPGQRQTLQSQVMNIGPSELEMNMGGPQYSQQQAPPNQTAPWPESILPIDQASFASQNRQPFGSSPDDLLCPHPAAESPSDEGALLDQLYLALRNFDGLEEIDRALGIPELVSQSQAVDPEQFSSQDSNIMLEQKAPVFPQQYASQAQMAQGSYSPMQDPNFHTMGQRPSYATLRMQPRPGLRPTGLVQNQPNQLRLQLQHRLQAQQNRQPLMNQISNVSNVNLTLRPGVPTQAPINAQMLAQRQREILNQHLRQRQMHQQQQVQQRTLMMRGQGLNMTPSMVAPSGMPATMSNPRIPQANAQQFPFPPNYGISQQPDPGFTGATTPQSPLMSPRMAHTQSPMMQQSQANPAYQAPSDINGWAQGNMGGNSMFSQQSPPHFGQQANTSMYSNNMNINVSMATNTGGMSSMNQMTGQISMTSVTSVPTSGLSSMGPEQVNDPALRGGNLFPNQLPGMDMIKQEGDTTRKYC
Sequence of 26S proteasome non-ATPase regulatory subunit 14 (O00487 whole entry): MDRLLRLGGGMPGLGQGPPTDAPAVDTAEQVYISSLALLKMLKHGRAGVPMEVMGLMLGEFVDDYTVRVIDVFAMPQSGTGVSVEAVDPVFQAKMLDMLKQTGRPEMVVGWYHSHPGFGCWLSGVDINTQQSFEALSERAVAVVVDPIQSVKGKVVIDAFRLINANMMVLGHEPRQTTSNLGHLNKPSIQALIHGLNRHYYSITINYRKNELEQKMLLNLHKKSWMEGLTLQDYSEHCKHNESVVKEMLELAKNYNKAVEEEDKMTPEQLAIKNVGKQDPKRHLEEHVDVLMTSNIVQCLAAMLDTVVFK

O=c1c2cc(-c3ccccc3)sc2nc2n1N=C(c1cccs1)CS2
IC50 [1]: 6.3 µM (active) | IC50 [2]: 13.7 µM (active)

CC(Sc1nnc(-c2ccc(Cl)cc2Cl)n1Cc1ccccc1)C(=O)Nc1nccs1 (stereo not drawn)
EC50 [3]: 10.6 µM (inactive) | EC50 [4]: 17.6 µM (not active) | EC50 [5]: > 79.4 µM (not active)

COc1ccc(N(CC(=O)Nc2ccccc2SC)S(C)(=O)=O)cc1OC
IC50 [6]: > 50 µM (inactive)

COCc1c(C(=O)OCc2nc(N)nc(Nc3ccccc3C)n2)oc2ccccc12
IC50 [6]: > 50 µM (inactive)

Cc1nc2nc(SCC(=O)N3CCC4(CC3)OCCO4)nn2c(C)c1Cc1ccccc1
AC50 [7]: 2.82 µM (active)

COc1ccc(CNc2nc(-c3ccccc3)nc3ccccc23)cc1OC
IC50 [2]: 9.94 µM (active)

CCOC(=O)C1CCCN(CC(=O)Nc2c(C(=O)OC)[nH]c3ccc(Br)cc23)C1 (stereo not drawn)
EC50 [3]: > 79.4 µM (inactive) | EC50 [4]: > 79.4 µM (not active) | EC50 [5]: > 26.5 µM (not active)

Oc1ccc2c(c1)oc1cc(O)ccc12
IC50 [8]: 3.5 µM (active) | AC50 [9]: 0.754 µM (active)

Cc1cc(C)c(S(=O)(=O)N2C[C@H]3CON(C)[C@H]3C[C@H]2c2ccc(N3CCCCC3)cc2)c(C)c1
IC50 [10]: 23.2 µM (active) | IC50 [11]: > 100 µM (inactive) | IC50 [12]: 29.2 µM (active)

CCOc1ccc2nc(NC(=O)c3ccoc3C)sc2c1
EC50 [13]: 2.43 µM (active) | EC50 [14]: 6.49 µM (active) | EC50 [15]: 1.79 µM (active) | EC50 [16]: < 0.088 µM (active) | EC50 [17]: 0.231 µM (active) | EC50 [18]: > 50 µM (not active) | EC50 [19]: 6.32 µM (active) | EC50 [20]: 1.97 µM (active) | AC50 [21]: 2.02 µM (active) | EC50 [22]: > 133 µM (inactive)

CC(=O)OCC(=O)[C@@]1(OC(C)=O)[C@@H](C)C[C@H]2[C@@H]3C[C@H](F)C4=CC(=O)C=C[C@]4(C)[C@@]3(F)[C@@H](O)C[C@@]21C [DIFLORASONE DIACETATE]
AC50 [7]: 9.06 µM (active)
